According to patent US20130288897A1, “SYNERGISTIC PESTICIDAL COMPOSITIONS” (Dow AgroSciences LLC, priority 2012, published 2013):
Several values for one entry are separate records, joined by “and”; a condition that tells them apart may be missing. Identical values can stand only once.

Key:
Assay type in all cases: in vivo
[1] = test system: cotton aphid (CA) Aphis gossypii; assay: Cotton aphid track-sprayer test on cotton: Compound A or imidacloprid with Durango (glyphosate) or Durango Blank and AMS (Example XVI); settings: for % Control (Negatives to zero) Ave / % control Ave / Colbv predicted values Ave: average of 5 reps
Description: Glyphosate resistant cotton plants (Gossypium hirsutum, cv ‘DP493’) were trimmed to 1 true leaf and infested with mixed stages of cotton aphid (CA) Aphis gossypii 24 h prior to application. Mixed developmental stage CA were infested onto the upper surface of each treated leaf by transferring infested foliage from an insectary colony. Each plant was infested with approximately equal numbers of CA based on visual estimation of aphid density on the infested material. Infested plants were held in the growth chamber (L:D 16:8 and 25° C.). Glyphosate (Durango®, Dow AgroSciences, LLC, Indianapolis, Ind.) was mixed with water at a rate equivalent to 15 ml/L (1.2 qt/Ac). […] A glyphosate free formulation of Durango® was prepared using these same mixing instructions. […] High rate Compound A concentrations were created by diluting Compound A technical material with acetone to achieve a 10 ppm solution. […] […] […] Nozzle height above the canopy was held constant at ca. 30 cm. Plants were evaluated after 3 days from the time of infestation by counting all live cotton aphids on each plant.
[…] Percent control for all treatments was calculated using the rep average for the untreated plants.

[2] = test system: cotton aphid (CA) Aphis gossypii; assay: Cotton aphid track-sprayer test on cotton: Compound A or imidacloprid with glufosinate (Liberty) and AMS (Example XVII); settings: for % control / % control Negatives to zero / Colby Predicted Values: Rep 1-6
Description: (§1) Glyphosate resistant cotton plants (Gossypium hirsutum, cv ‘DP493’) were trimmed to 1 true leaf and infested with mixed stages of cotton aphid (CA) Aphis gossypii 24 h prior to application. Mixed developmental stage CA were infested onto the upper surface of each treated leaf by transferring infested foliage from an insectary colony. Each plant was infested with approximately equal numbers of CA based on visual estimation of aphid density on the infested material. Infested plants were held in the growth chamber (L:D 16:8 and 25° C.). Glufosinate (Liberty®, Bayer CropScience, Monheim am Rhein, Germany) was mixed with water at a rate equivalent to 5 ml/L (0.4 qt/Ac). […] High rate Compound A concentrations were created by diluting Compound A technical material with acetone to achieve a 10 ppm solution. […] […] […] Nozzle height above the canopy was held constant at ca. 30 cm. Plants were evaluated after 3 days from the time of infestation by counting all live cotton aphids on each plant.
TABLE 6 contains the calculated Colby values for combinations of treatments as well as the outcome of statistical evaluations between predicted (Colby) and actual measured values. These T-test statistics were only calculated for the 0.2 and 0.05 g/Ha rates. […] These same trends were apparent when Compound A was applied with both glufosinate and AMS.

[3] = test system: cotton aphid (CA) Aphis gossypii; assay: Cotton aphid track-sprayer test on cotton: Compound A with glufosinate (Liberty) and AMS, rates 0.4, 0.1 and 0.025 g/Ha (Example XVIII)
Description: as §1, with “24 hours” for “24 h”, “a 20” for “a 10”

[4] = 0.0125 g insecticide/Ha with Durango 0.015 ml/ml + AMS 18 g/L
[5] = 0.0125 g insecticide/Ha with Durango 0.015 ml/ml
[6] = 0.0125 g insecticide/Ha with Durango Blank 0.015 ml/ml + AMS 18 g/L
[7] = 0.0125 g insecticide/Ha with Durango Blank 0.015 ml/ml
[8] = 0.05 g insecticide/Ha with Durango 0.015 ml/ml + AMS 18 g/L, Rep 1-5
[9] = 0.05 g insecticide/Ha with Durango 0.015 ml/ml + AMS 18 g/L
[10] = 0.05 g insecticide/Ha with Durango 0.015 ml/ml
[11] = 0.05 g insecticide/Ha with Durango Blank 0.015 ml/ml + AMS 18 g/L
[12] = 0.05 g insecticide/Ha with Durango Blank 0.015 ml/ml
[13] = 0.2 g insecticide/Ha with Durango 0.015 ml/ml + AMS 18 g/L, Rep 1-5
[14] = 0.2 g insecticide/Ha with Durango 0.015 ml/ml + AMS 18 g/L
[15] = 0.2 g insecticide/Ha with Durango 0.015 ml/ml, Rep 1-5
[16] = 0.2 g insecticide/Ha with Durango 0.015 ml/ml
[17] = 0.2 g insecticide/Ha with Durango Blank 0.015 ml/ml + AMS 18 g/L, Rep 1-5
[18] = 0.2 g insecticide/Ha with Durango Blank 0.015 ml/ml + AMS 18 g/L
[19] = 0.2 g insecticide/Ha with Durango Blank 0.015 ml/ml
[20] = 0.0125 g In./Ha + glufosinate 0.005 ml/ml + AMS 18 mg/ml
[21] = 0.05 g In./Ha + glufosinate 0.005 ml/ml
[22] = 0.05 g In./Ha + glufosinate 0.005 ml/ml + AMS 18 mg/ml
[23] = 0.2 g In./Ha + glufosinate 0.005 ml/ml
[24] = 0.2 g In./Ha + glufosinate 0.005 ml/ml + AMS 18 mg/ml
[25] = 0.2 g In./Ha, no glufosinate, no AMS
[26] = 0.025 g In./HA + Lib. 0.005 ml/ml
[27] = 0.025 g In./HA + Lib. 0.005 ml/ml + AMS 18 g/L
[28] = 0.1 g In./HA + Lib. 0.005 ml/ml
[29] = 0.1 g In./HA + Lib. 0.005 ml/ml + AMS 18 g/L
[30] = 0.4 g In./HA + Lib. 0.005 ml/ml
[31] = 0.4 g In./HA + Lib. 0.005 ml/ml + AMS 18 g/L
[32] = Rep 1-6, 0.1 g In./HA + Lib. 0.005 ml/ml
[33] = Rep 1-6, 0.1 g In./HA + Lib. 0.005 ml/ml + AMS 18 g/L
[34] = Rep 1-6, 0.4 g In./HA + Lib. 0.005 ml/ml
[35] = Rep 1-6, 0.4 g In./HA + Lib. 0.005 ml/ml + AMS 18 g/L

## CC(c1ccc(C(F)(F)F)nc1)S(C)(=O)=NC#N (centres unmarked) [Compound A, [1-(6-Trifluoromethylpyridin-3-yl)ethyl](methyl)-oxido-λ^4-sulfanylidenecyanamide]
[1]; [4]
  % Control (Negatives to zero) Ave: 23.8%
  % control Ave: 11.7%
  Colbv predicted values Ave: 48.0
[1]; [5]
  % Control (Negatives to zero) Ave: 17.4%
  % control Ave: 0.5%
  Colbv predicted values Ave: 36.6
[1]; [6]
  % Control (Negatives to zero) Ave: 26.5%
  % control Ave: 25.1%
  Colbv predicted values Ave: 56.2
[1]; [7]
  % Control (Negatives to zero) Ave: 15.8%
  % control Ave: −22.7%
  Colbv predicted values Ave: 36.6
[1]; 0.0125 g insecticide/Ha, no herbicide, no AMS
  % control Ave: 5.5%
[1]; [8]
  % control: 68.6% and 52.3% and 68.2% and 65.8% and 35.3%
  % control Negatives to zero: 68.6% and 52.3% and 68.2% and 65.8% and 35.3%
  CA Counts: 37 and 49 and 36 and 25 and 48
[1]; [9]
  % Control (Negatives to zero) Ave: 58.0%
  % control Ave: 58.0%
  Colbv predicted values Ave: 55.3
[1]; [10]
  % Control (Negatives to zero) Ave: 14.2%
  % control Ave: 9.1%
  Colbv predicted values Ave: 45.2
[1]; [11]
  % Control (Negatives to zero) Ave: 37.9%
  % control Ave: 35.5%
  Colbv predicted values Ave: 56.9
[1]; [12]
  % Control (Negatives to zero) Ave: 36.1%
  % control Ave: 36.1%
  Colbv predicted values Ave: 43.6
[1]; 0.05 g insecticide/Ha, no herbicide, no AMS
  % control Ave: 31.8%
[1]; [13]
  % control: 97.5% and 100.0%
  % control Negatives to zero: 97.5% and 100.0%
[1]; [14]
  % Control (Negatives to zero) Ave: 99.5%
  % control Ave: 99.5%
  Colbv predicted values Ave: 72.8
[1]; [15]
  % control: 89.8% and 96.1% and 76.1% and 91.8% and 96.0%
  % control Negatives to zero: 89.8% and 96.1% and 76.1% and 91.8% and 96.0%
[1]; [16]
  % Control (Negatives to zero) Ave: 90.0%
  % control Ave: 90.0%
  Colbv predicted values Ave: 70.5
[1]; [17]
  % control: 66.9% and 97.1% and 76.1% and 79.5% and 74.4%
  % control Negatives to zero: 68.9% and 97.1% and 76.1% and 79.5% and 74.4%
  Colbv predicted values: 97.5 and 77.2 and 97.3 and 72.7 and 71.7
[1]; [18]
  % Control (Negatives to zero) Ave: 78.8%
  % control Ave: 78.8%
  Colbv predicted values Ave: 83.3
[1]; [19]
  % Control (Negatives to zero) Ave: 60.1%
  % control Ave: 60.1%
  Colbv predicted values Ave: 71.5
[1]; 0.2 g insecticide/Ha, no herbicide, no AMS
  % control Ave: 50.2%
[2]; 0.0125 g In./Ha + glufosinate 0.005 ml/ml
  % control AVE: 57.9%
[2]; [20]
  % control AVE: 85.5%
  % control: 94.7% and 89.7% and 68.6% and 90.7% and 83.8% and 95.5%
  % control Negatives to zero: 94.7% and 89.7% and 68.6% and 90.7% and 83.8% and 93.9%
[2]; 0.0125 g In./Ha, combination with glufosinate
  Colby Predicted Values Ave: 48.7
[2]; 0.0125 g In./Ha, combination with glufosinate and AMS
  Colby Predicted Values Ave: 56.8
[2]; 0.0125 g In./Ha, no glufosinate, no AMS
  % control AVE: 22.9%
[2]; [21]
  % control AVE: 82.1%
  % control: 81.3% and 80.2% and 72.9% and 99.2% and 77.0% and 89.4%
  % control Negatives to zero: 81.3% and 80.2% and 72.9% and 99.2% and 77.0% and 89.4%
[2]; [22]
  % control AVE: 91.8%
  % control: 89.3% and 96.6% and 77.1% and 97.5% and 98.6% and 80.3%
  % control Negatives to zero: 89.3% and 96.6% and 77.1% and 97.5% and 98.6% and 80.3%
[2]; 0.05 g In./Ha, combination with glufosinate
  Colby Predicted Values Ave: 63.4
[2]; 0.05 g In./Ha, combination with glufosinate and AMS
  Colby Predicted Values Ave: 67.4
[2]; 0.05 g In./Ha, no glufosinate, no AMS
  % control AVE: 60.2%
[2]; [23]
  % control AVE: 95.3%
  % control: 97.3% and 95.7% and 93.2% and 94.6% and 86.4%
  % control Negatives to zero: 97.3% and 95.7% and 93.2% and 94.6% and 86.4%
[2]; [24]
  % control AVE: 96.6%
  % control: 98.7% and 94.0% and 94.3% and 97.5% and 98.6% and 93.9%
  % control Negatives to zero: 98.7% and 94.0% and 94.3% and 97.5% and 98.6% and 93.9%
[2]; 0.2 g In./Ha, combination with glufosinate
  Colby Predicted Values Ave: 85.7
[2]; 0.2 g In./Ha, combination with glufosinate and AMS
  Colby Predicted Values Ave: 87.7
[2]; [25]
  % control AVE: 87.0%
  % control: 77.3% and 87.9% and 91.4% and 86.4% and 91.9% and 68.2%
[2]; 0.2 g In./Ha, first block of lines (combination with glufosinate)
  Colby Predicted Values: 77.3 and 91.2 and 95.9 and 90.1 and 91.9 and 68.2
[2]; 0.2 g In./Ha, second block of lines (combination with glufosinate and AMS)
  Colby Predicted Values: 90.0 and 93.9 and 95.3 and 87.0 and 91.9 and 68.2
[3]; [26]
  % Control (Negatives to zero) Ave: 54.2%
  Colby Predicted Values Ave: 56.8
[3]; [27]
  % Control (Negatives to zero) Ave: 85.6%
  Colby Predicted Values Ave: 62.5
[3]; [28]
  % Control (Negatives to zero) Ave: 76.7%
  Colby Predicted Values Ave: 72.4
[3]; [29]
  % Control (Negatives to zero) Ave: 89.7%
  Colby Predicted Values Ave: 76.7
[3]; 0.1 g In./HA, no Lib., no AMS
  % Control (Negatives to zero) Ave: 62.1%
[3]; [30]
  % Control (Negatives to zero) Ave: 99.0%
  Colby Predicted Values Ave: 98.2
[3]; [31]
  % Control (Negatives to zero) Ave: 98.2%
  Colby Predicted Values Ave: 98.4
[3]; 0.4 g In./HA, no Lib., no AMS
  % Control (Negatives to zero) Ave: 97.3%
[3]; 0025 g In./HA, no Lib., no AMS
  % Control (Negatives to zero) Ave: 39.5%
[3]; Rep 1-6, 0.025 g In./HA + Lib. 0.005 ml/ml + AMS 18 g/L
  % control Negatives to zero: 70.0% and 95.4% and 97.0% and 89.1% and 65.9% and 96.2%
[3]; Rep 1-6, 0.025 g In./Ha, no Liberty, no AMS
  CA Counts: 198 and 126 and 194 and 117 and 231 and 212
[3]; [32]
  % control Negatives to zero: 58.2% and 79.2% and 98.0% and 58.5% and 82.6% and 84.0%
  Colby Predicted Values: 74.4 and 70.0 and 71.8 and 78.3 and 93.2 and 46.6
[3]; [33]
  % control Negatives to zero: 95.2% and 89.4% and 91.2% and 81.2% and 99.0% and 81.9%
  Colby Predicted Values: 81.3 and 73.3 and 73.7 and 78.5 and 93.8 and 59.6
[3]; Rep 1-6, 0.1 g In./HA, no Lib., no AMS
  % control Negatives to zero: 65.2% and 70.0% and 54.2% and 73.5% and 70.9% and 38.7%
[3]; [34]
  % control Negatives to zero: 97.8% and 100.0% and 99.0% and 98.4% and 98.7%
  Colby Predicted Values: 99.3 and 97.9 and 96.6 and 99.2 and 97.3
[3]; [35]
  % control Negatives to zero: 98.2% and 100.0% and 98.3% and 92.7%
  Colby Predicted Values: 99.0 and 99.4 and 98.1 and 96.6 and 99.3 and 97.9
[3]; Rep 1-6, 0.4 g In./HA, no Lib., no AMS
  % control Negatives to zero: 98.2% and 99.3% and 96.6% and 95.8% and 96.7% and 96.9%
